From ChEMBL document CHEMBL5113369, “A review on the structure and pharmacological activity of phenylethanoid glycosides” (Eur J Med Chem, 2021)

Experiments:
Format in all cases: ADME, organism-based, Canis lupus familiaris
Settings in all cases: in vivo, dose 10-40 mg/kg
[1] = Oral bioavailability in Beagle dog at 10 to 40 mg/kg measured up to 8 hrs by LC-MS/MS analysis
[2] = Tmax in Beagle dog at 10 to 40 mg/kg, po measured up to 8 hrs by LC-MS/MS analysis
[3] = Half life in Beagle dog at 10 to 40 mg/kg, po measured up to 8 hrs by LC-MS/MS analysis

bioavailability [1]: 4% | Tmax [2]: 30 min | half-life [3]: 90 min
Compound: C[C@@H]1O[C@@H](O[C@@H]2[C@@H](O)[C@H](OCCc3ccc(O)c(O)c3)O[C@H](CO)[C@H]2OC(=O)/C=C/c2ccc(O)c(O)c2)[C@H](O)[C@H](O)[C@H]1O [ACETOSIDE]
